From patent US8981066B2, “Epigenetic mechanisms related to DNA damage and aging” (Buck Institute for Research on Aging, priority 2011, dated 2015)

Key:
[1] = tested on: H1.0 gene; experiment: H1.0 gene expression in hADSCs (qPCR); type: cell-based, human; settings: bleomycin-treated hADSCs
Method: FIGS. 4A-4C illustrate the dynamics of the meK172meK180 methylation of hi stone H1.0 upon genotoxic stress-induced senescence of human adult stem (hADSC). FIG. 4A: Cells we treated with 50 μg/ml bleomycin for 3 hrs. Drug was replaced with normal DMEM12 media and cells were assessed for ^meK172^meK180 histone H1 methylation and DNA damage γH2AX at different time points (panels A, B, and C) by immunohistochemistry. Cellular senescence was estimated by senescence-associated β-Gal activity (phase-contrast). FIGS. 4B and 4C show the results of Western blots using H1.0 methyl antibodies in crude cellular extracts from human ADSCs treated with Rapamycin (FIG. 4B) or rampamyucin and bleomycin (FIG. 4C). […] However, acute DDR results in transcriptional up regulation of H1.0 gene expression that could be influenced by TOR pathway suppression. 1, 2, 3—represent samples of three independent hADSCs cultures used in western blot and qPCR experiments.
Cellular senescence is believed to be associated with accumulation of persistent DNA damage (Sedelnikova et al. (2008) Aging Cell 7: 89-100; Rodier et al. (2009) Nat. Cell Biol., 11: 973-979) and activation of DNA damage response (DDR) pathways (Wang et al. (2011) Cell Cycle 10: 3016-3030; Sedelnikova et al. (2004) Nat. Cell Biol., 6: 168-170; Herbig et al. (2004) Molecular Cell, 14: 501-513; d'Adda et al. (2003) Nature 426: 194-198). […]

[2] = tested on: meK172meK180 methylated form of H1.0 in hADSC cells; experiment: H1.0 meK172meK180 methylation and localisation in hADSCs upon bleomycin genotoxic stress (immunostaining, Western blot); type: cell-based, human; settings: for nuclear meK172meK180 H1 methylation (initial DNA damage response): hADSC, bleomycin 50 μg/ml
Method: FIGS. 4A-4C illustrate the dynamics of the meK172meK180 methylation of hi stone H1.0 upon genotoxic stress-induced senescence of human adult stem (hADSC). FIG. 4A: Cells we treated with 50 μg/ml bleomycin for 3 hrs. Drug was replaced with normal DMEM12 media and cells were assessed for ^meK172^meK180 histone H1 methylation and DNA damage γH2AX at different time points (panels A, B, and C) by immunohistochemistry. Cellular senescence was estimated by senescence-associated β-Gal activity (phase-contrast). […] 1, 2, 3—represent samples of three independent hADSCs cultures used in western blot and qPCR experiments.
Cellular senescence is believed to be associated with accumulation of persistent DNA damage and activation of DNA damage response (DDR) pathways. In the DDR pathway, some chromatin modifications seem to play a critical role in marking lesions or recruiting factors involved in repair, thus facilitating the function of repair proteins. The best characterized in this context are histone H2AX and H1 phosphorylation events.

Substance: bleomycin
- H1.0 transcription upon acute DNA damage [1]: drastic increase
- localisation of met H1.0 upon genotoxic-stress induced senescence ([2]; bleomycin-treated hADSCs): eviction of met H1.0 into the cytoplasm
- nuclear meK172meK180 H1 methylation (initial DNA damage response) [2]: triggers
- nuclear meK172meK180 H1 methylation (initial DNA damage response) ([2]; listed as bleomycine): rapid and robust nuclear H1.0 methylation
